Data on nine substances can be found in publication PMC10122656, “Siglec-6 mediates the uptake of extracellular vesicles through a noncanonical glycolipid binding pocket” (Nature Communications, 2023).

Holding throughout (assay): Cell assay (liposome/EV binding, flow cytometry)
What all share (assay type): cell-based

The target in test [1] is T1, Siglec-9 R120A CHO cells (Homo sapiens, UniProt Q9Y336, R120A).
T1 construct: expressed in transfected cells
As to conditions: Sig-9 R120A†; † after treatment of cells with neuraminidase; 3 mol% ganglioside liposomes; replicates. The procedure:
(§1) Stock lipids (DSPC, Cholesterol, PEG45–DSPE) solutions were prepared by solvating the lipids in chloroform. An appropriate volume of each lipid solution was transferred to a glass test tube to reach the desired mol% of the component. The chloroform was then removed under N2 gas to yield a lipid thin film. Once dry, 100 µL of DMSO was added to the lipid-containing test tube and then the functional lipids (ganglioside, AF647–PEG45–DSPE, Siglec ligand–PEG45–DSPE, pHrodo–PEG45–DSPE, NGL) was added from their respect DMSO stock solution. The lipid mixture was then stored at −80 °C until completely frozen at which point excess DMSO was removed via lyophilization. Dry lipids were then stored at −80 °C until they were extruded. Lipid suppliers can be found in Supplementary Table 4.
(§2) Dry lipids were then hydrated in 1 mL of PBS. The lipids were then sonicated in a bath sonicator in a cycle of 1 min on, 5 min off for a total of five cycles. Liposomes were then extruded using an Avanti mini extruder first using an 800 nm filter and then a 100 nm filter yielding liposomes that were 130 ± 35 nm (Supplementary Table 5) measured using a Malvern Panalytical Zetasizer Nano S. Liposomes were stored at 4 °C.
(§3) 200,000 cells/well were plated into a 96-well U-bottom microplate and centrifuged at 300 × g for 5 min. The cells were then resuspended in 50 µL of 50 µM liposome/50 µg/mL (protein concentration) of EV solution in DMEM F12 5% FBS and incubated at 37 °C for 30 min. Excess liposomes were then removed via centrifuged at 300 × g for 5 min followed by washing the cells with FACS solution. The cells were then resuspended in (1:250 V/V) anti-Siglec-flow buffer (1% V/V FBS, 500 µM, EDTA Hank’s Balanced Salt Solution pH 7.4), solution and left to rest on ice for 30 min. The cells were then centrifuged again at 300 × g for 5 min and the cells were resuspended in FACS buffer solution and were then ready for analysis by flow cytometry. Information regarding antibody clone, catalog number supplier, label isotype, and dilution can be found in Supplementary Table 6. The Siglec-positive cells were gated on for liposome-binding analysis (Supplementary Fig. 1b).
(§4) Flow cytometry measurements were collected on a 5-laser Fortessa X-20 (BD Bioscience). All the resulting data were analyzed using FlowJo (10.5.3) software (BD Biosciences).
(§5) Cells were harvested and resuspended in complete media with either Neuraminidase A or S. The cells were then placed in a 37 °C shaking incubator for 1 h. The cells were then washed with complete media and then the liposome binding assay was performed as described above.

Test [2] deals with T2, Siglec-5 WT CHO cells (Homo sapiens, UniProt O15389).
T2 construct: expressed in transfected cells
T2 sequence (O15389 17-551): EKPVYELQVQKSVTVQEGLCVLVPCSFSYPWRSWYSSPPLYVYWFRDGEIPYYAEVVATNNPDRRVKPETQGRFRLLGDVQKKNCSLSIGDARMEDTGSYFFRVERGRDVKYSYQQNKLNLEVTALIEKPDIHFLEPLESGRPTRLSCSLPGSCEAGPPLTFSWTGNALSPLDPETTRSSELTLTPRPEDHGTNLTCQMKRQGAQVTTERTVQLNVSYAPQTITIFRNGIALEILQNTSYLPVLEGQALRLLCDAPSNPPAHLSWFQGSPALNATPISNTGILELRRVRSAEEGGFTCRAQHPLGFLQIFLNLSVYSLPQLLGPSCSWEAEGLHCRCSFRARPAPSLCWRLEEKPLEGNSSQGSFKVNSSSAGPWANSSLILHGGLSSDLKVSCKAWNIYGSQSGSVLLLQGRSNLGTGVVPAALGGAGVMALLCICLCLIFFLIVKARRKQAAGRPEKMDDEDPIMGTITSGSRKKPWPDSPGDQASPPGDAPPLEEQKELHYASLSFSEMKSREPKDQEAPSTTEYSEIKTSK
As to conditions: for log10(MFI AF647) of GLL relative to log10(MFI AF647) of the same GLL against UT CHO cells (Fig. 2a): Sig-5 WT†, † after treatment of cells with neuraminidase, 3 mol% ganglioside liposomes, replicates; for GLL binding to Siglec-5 (in words): cell assay, optimized liposomal formulation. The protocol: as §1, §2, §3, §4, §5

Test [3] addresses T3, Siglec-4 WT CHO cells (Homo sapiens, UniProt P20916).
T3 construct: expressed in transfected cells
T3 sequence (P20916 20-626): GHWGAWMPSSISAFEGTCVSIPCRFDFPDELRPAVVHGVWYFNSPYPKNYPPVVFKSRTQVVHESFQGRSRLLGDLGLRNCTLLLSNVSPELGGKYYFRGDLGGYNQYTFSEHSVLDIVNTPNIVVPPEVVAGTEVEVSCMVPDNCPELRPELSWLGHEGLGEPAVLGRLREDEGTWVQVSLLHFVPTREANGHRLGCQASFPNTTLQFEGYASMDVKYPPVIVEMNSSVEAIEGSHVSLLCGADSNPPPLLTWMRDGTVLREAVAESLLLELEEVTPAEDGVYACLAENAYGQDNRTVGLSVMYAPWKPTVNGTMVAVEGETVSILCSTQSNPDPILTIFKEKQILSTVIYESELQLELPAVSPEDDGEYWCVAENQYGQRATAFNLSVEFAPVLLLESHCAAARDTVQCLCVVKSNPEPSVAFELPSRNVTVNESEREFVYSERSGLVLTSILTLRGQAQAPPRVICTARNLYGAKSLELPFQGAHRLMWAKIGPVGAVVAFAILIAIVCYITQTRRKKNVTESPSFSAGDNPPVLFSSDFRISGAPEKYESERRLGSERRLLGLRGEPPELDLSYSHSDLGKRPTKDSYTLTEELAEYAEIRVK
The following applies: Sig-4 WT†; † after treatment of cells with neuraminidase; 3 mol% ganglioside liposomes; replicates. The procedure:
as §1, §2, §3, §4, §5

Values joined by “and” are separate entries in the source; they are usually repeats but may differ in a detail not shown here. Equal entries are not always repeated.

T1 sequence (Q9Y336 18-463 R120A): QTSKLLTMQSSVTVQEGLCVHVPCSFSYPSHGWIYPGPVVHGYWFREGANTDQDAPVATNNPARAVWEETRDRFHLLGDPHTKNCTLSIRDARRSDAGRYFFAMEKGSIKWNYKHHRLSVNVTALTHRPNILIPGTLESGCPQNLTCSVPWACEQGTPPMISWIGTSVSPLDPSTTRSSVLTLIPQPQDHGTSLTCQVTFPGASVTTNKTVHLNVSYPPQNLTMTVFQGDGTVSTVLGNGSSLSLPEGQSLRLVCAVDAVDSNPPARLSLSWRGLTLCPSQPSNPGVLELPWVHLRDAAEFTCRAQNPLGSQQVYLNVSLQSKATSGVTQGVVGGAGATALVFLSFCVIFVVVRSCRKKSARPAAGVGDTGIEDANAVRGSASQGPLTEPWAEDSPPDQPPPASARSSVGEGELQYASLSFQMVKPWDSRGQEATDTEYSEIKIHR

GD1a: the “log10(MFI AF647) of GLL relative to log10(MFI AF647) of the same GLL against UT CHO cells (Fig. 2a)” value in test [1] is 0.17 and 0.16 (3×); in test [2], 0.3 and 0.33 and 0.29; in test [3] it was 1.02 and 0.9 and 0.95 and 0.88.

With GD1b, the “log10(MFI AF647) of GLL relative to log10(MFI AF647) of the same GLL against UT CHO cells (Fig. 2a)” value in test [1] is 0.12 (2×) and 0.14 (2×); in test [2], 0.26 and 0.29 and 0.23; in test [3] it was 0.9 and 0.93 and 0.96 and 0.92. The “GLL binding to Siglec-5 (in words)” value in test [2] is given as “novel interactions were observed”.

Consider GD3, for which the “log10(MFI AF647) of GLL relative to log10(MFI AF647) of the same GLL against UT CHO cells (Fig. 2a)” value in test [1] was 0.21 and 0.15 (2×) and 0.19; in test [2], 0.28 and 0.26 and 0.19; in test [3], 0.51 (2×) and 0.52 and 0.5.

For the substance GM1, the “log10(MFI AF647) of GLL relative to log10(MFI AF647) of the same GLL against UT CHO cells (Fig. 2a)” value is 0.14 and 0.1 (2×) and 0.16 in test [1]; 0.35 (2×) and 0.26 in test [2]; 0.57 (2×) and 0.53 and 0.49 in test [3]. Besides, in test [2], the “GLL binding to Siglec-5 (in words)” value is recorded as “novel interactions were observed”.

As for GM2, the “log10(MFI AF647) of GLL relative to log10(MFI AF647) of the same GLL against UT CHO cells (Fig. 2a)” value in test [1] was 0.15 and 0.16 and 0.17 (2×); in test [2], 0.12 and 0.11 and 0.15; in test [3], 0.08 (2×) and -0.03 and -0.04.

Turning to GM3, the “log10(MFI AF647) of GLL relative to log10(MFI AF647) of the same GLL against UT CHO cells (Fig. 2a)” value in test [1] is -0.21 and -0.17 and -0.15 and -0.13; in test [2] it was -0.05 (2×) and -0.08; in test [3], -0.11 (2×) and -0.14 and -0.2.

GM4: the “log10(MFI AF647) of GLL relative to log10(MFI AF647) of the same GLL against UT CHO cells (Fig. 2a)” value in test [1] was 0.05 and 0.07 and 0.08 (2×); in test [2], 0.08 (2×) and 0.05; in test [3] it was -0.3 and -0.1 and -0.11 and -0.09.

For GQ1b, the “log10(MFI AF647) of GLL relative to log10(MFI AF647) of the same GLL against UT CHO cells (Fig. 2a)” value is 0.15 and 0.12 and 0.13 and 0.1 in test [1]; 0.86 (2×) and 0.94 in test [2]; 0.13 and 0.12 and 0.1 and 0.11 in test [3].

For GT1b, the “log10(MFI AF647) of GLL relative to log10(MFI AF647) of the same GLL against UT CHO cells (Fig. 2a)” value in test [1] is 0.16 (2×) and 0.11 and 0.15; in test [2], 0.58 and 0.64 and 0.55; in test [3], 1.15 and 1 and 1.11 and 1.1.
